Measured values reported in patent US8822503B2, “2-pyridone compounds” (Taisho Pharmaceutical Co., Ltd, priority 2009, dated 2014).

Target: T1, human liver GK (Homo sapiens, UniProt P35557)
T1 construct: GST (glutathione S-transferase) (N); made in house; host or cells: E. coli
T1 sequence (P35557 1-466 isoform P35557-2): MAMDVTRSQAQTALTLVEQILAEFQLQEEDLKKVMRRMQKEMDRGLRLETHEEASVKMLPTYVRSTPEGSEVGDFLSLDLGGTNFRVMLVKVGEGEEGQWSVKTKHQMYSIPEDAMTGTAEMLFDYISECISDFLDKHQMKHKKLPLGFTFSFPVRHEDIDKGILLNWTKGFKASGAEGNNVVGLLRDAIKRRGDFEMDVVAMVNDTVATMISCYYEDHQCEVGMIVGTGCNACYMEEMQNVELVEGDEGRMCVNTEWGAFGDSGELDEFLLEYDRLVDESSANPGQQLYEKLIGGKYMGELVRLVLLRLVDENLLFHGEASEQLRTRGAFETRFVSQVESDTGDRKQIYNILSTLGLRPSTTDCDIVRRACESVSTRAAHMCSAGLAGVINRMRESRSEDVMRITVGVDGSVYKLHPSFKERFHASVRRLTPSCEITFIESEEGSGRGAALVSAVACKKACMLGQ
Experiment: GK activation test
Format: biochemical
Conditions: test compound concentration needed to activate 50% of maximum activation ability; 4 mM 14C-labeled glucose, 2 mM ATP, room temperature, 20 minutes
How it was run: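 GST-tagged human liver GK from E. coli (0.24 μg/well) with 4 mM 14C-glucose, 2 mM ATP in Hepes-KOH pH 7.1, KCl, MgCl2, DTT, 1% DMSO, 20 min room temperature. Labeled glucose 6-phosphate captured on anion resin, eluted and counted. EC50 = concentration giving half of maximal activation.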

Row | Structure (SMILES) | EC50 [nM]
1 | CCc1ccc(/C(=C/C2CCCC2)c2ccc(S(C)(=O)=O)c(Cl)c2)[nH]c1=O [Example 1-21, 6-{(E)-1-[3-Chloro-4-(methylsulfonyl)phenyl]-2-cyclopentylethenyl}-3-ethylpyridin-2(1H)-one] | 10 to 500
2 | Cc1ccc(/C(=C/C2CCCC2)c2ccc(SCCCO)c(Cl)c2)[nH]c1=O [Example 1-22, 6-[(E)-1-{3-Chloro-4-[(3-hydroxypropyl)sulfanyl]phenyl}-2-cyclopentylethenyl]-3-methylpyridin-2(1H)-one] | 10 to 500
3 | Cc1ccc(/C(=C/C2CCCC2)c2ccc(S(=O)(=O)CCCO)c(Cl)c2)[nH]c1=O [Example 1-23, 6-[(E)-1-{3-Chloro-4-[(3-hydroxypropyl)sulfonyl]phenyl}-2-cyclopentylethenyl]-3-methylpyridin-2(1H)-one] | 10 to 500
4 | CCN(CC)CCCSc1ccc(/C(=C\C2CCCC2)c2ccc(C)c(=O)[nH]2)cc1Cl [Example 1-24, 6-[(E)-1-(3-Chloro-4-{[3-(diethylamino)propyl]sulfanyl}phenyl)-2-cyclopentylethenyl]-3-methylpyridin-2(1H)-one] | 10 to 500
5 | CCN(CC)CCCS(=O)(=O)c1ccc(/C(=C\C2CCCC2)c2ccc(C)c(=O)[nH]2)cc1Cl [Example 1-25, 6-[(E)-1-(3-Chloro-4-{[3-(diethylamino)propyl]sulfonyl}phenyl)-2-cyclopentylethenyl]-3-methylpyridin-2(1H)-one] | 500 to 3000
6 | CCc1ccc(/C(=C/C2CCCC2)c2ccc(SCCCN(CC)CC)c(Cl)c2)[nH]c1=O [Example 1-26, 6-[(E)-1-(3-Chloro-4-{[3-(diethylamino)propyl]sulfanyl}phenyl)-2-cyclopentylethenyl]-3-ethylpyridin-2(1H)-one] | 10 to 500
7 | CCc1ccc(/C(=C/C2CCCC2)c2ccc(S(=O)(=O)CCCN(CC)CC)c(Cl)c2)[nH]c1=O [Example 1-27, 6-[(E)-1-(3-Chloro-4-{[3-(diethylamino)propyl]sulfonyl}phenyl)-2-cyclopentylethenyl]-3-ethylpyridin-2(1H)-one] | 10 to 500
8 | CS(=O)(=O)c1ccc(/C(=C\C2CCCC2)c2ccc(C(F)(F)F)c(=O)[nH]2)cc1 [Example 1-28, 6-{(E)-2-Cyclopentyl-1-[4-(methylsulfonyl)phenyl]ethenyl}-3-(trifluoromethyl)pyridin-2(1H)-one] | 500 to 3000
9 | O=c1[nH]c(/C(=C/C2CCCC2)c2ccc(SC3CC3)cc2)ccc1-c1ccccc1 [Example 1-29, 6-{(E)-2-Cyclopentyl-1-[4-(cyclopropylsulfanyl)phenyl]ethenyl}-3-phenylpyridin-2(1H)-one] | 10 to 500
10 | O=c1[nH]c(/C(=C/C2CCCC2)c2ccc(S(=O)(=O)C3CC3)cc2)ccc1CO [Example 1-30, 6-{(E)-2-Cyclopentyl-1-[4-(cyclopropylsulfonyl)phenyl]ethenyl}-3-(hydroxymethyl)pyridin-2(1H)-one] | 10 to 500
11 | CCN1CC(Sc2ccc(/C(=C\C3CCCC3)c3ccc(C)c(=O)[nH]3)cc2)C1 [Example 1-31, 6-[(E)-2-Cyclopentyl-1-{4-[(1-ethylazetidin-3-yl)sulfanyl]phenyl}ethenyl]-3-methylpyridin-2(1H)-one] | 500 to 3000
12 | CCN1CC(S(=O)(=O)c2ccc(/C(=C\C3CCCC3)c3ccc(C)c(=O)[nH]3)cc2)C1 [Example 1-32, 6-[(E)-2-Cyclopentyl-1-{4-[(1-ethylazetidin-3-yl)sulfonyl]phenyl}ethenyl]-3-methylpyridin-2(1H)-one] | 500 to 3000
13 | COC(=O)c1ccc(/C(=C\C2CCCC2)c2ccc(C)c(=O)[nH]2)cc1 [Example 1-33, Methyl 4-[(E)-2-cyclopentyl-1-(5-methyl-6-oxo-1,6-dihydropyridin-2-yl)ethenyl]benzoate] | 500 to 3000
14 | CSc1ccc(/C(=C\C2CCCC2)c2ccc(C)c(=O)[nH]2)cn1 [Example 1-34, 6-{(E)-2-Cyclopentyl-1-[6-(methylsulfanyl)pyridin-3-yl]ethenyl}-3-methylpyridin-2(1H)-one] | 500 to 3000
15 | Cc1ccc(/C(=C/C2CCCC2)c2ccc(S(C)(=O)=O)nc2)[nH]c1=O [Example 1-35, 6-{(E)-2-Cyclopentyl-1-[6-(methylsulfonyl)pyridin-3-yl]ethenyl}-3-methylpyridin-2(1H)-one] | 500 to 3000
16 | Cc1ccc(/C(=C/CC2CCCC2)c2ccc(SC3CC3)cc2)[nH]c1=O [Example 1-36, 6-{(1E)-3-Cyclopentyl-1-[4-(cyclopropylsulfanyl)phenyl]prop-1-en-1-yl}-3-methylpyridin-2(1H)-one] | 10 to 500
17 | Cc1ccc(/C(=C/CC2CCCC2)c2ccc(S(=O)(=O)C3CC3)cc2)[nH]c1=O [Example 1-37, 6-{(1E)-3-Cyclopentyl-1-[4-(cyclopropylsulfonyl)phenyl]prop-1-en-1-yl}-3-methylpyridin-2(1H)-one] | 10 to 500
18 | O=c1[nH]c(/C(=C/C2CCCC2)c2ccc(CCCCO)cc2)ccc1C(F)(F)F [Example 1-38, 6-{(E)-2-Cyclopentyl-1-[4-(4-hydroxybutyl)phenyl]ethenyl}-3-(trifluoromethyl)pyridin-2(1H)-one] | 500 to 3000
19 | CCN(CC)CCCCc1ccc(/C(=C\C2CCCC2)c2ccc(C(F)(F)F)c(=O)[nH]2)cc1 [Example 1-39, 6-[(E)-2-Cyclopentyl-1-{4-[4-(diethylamino)butyl]phenyl}ethenyl]-3-(trifluoromethyl)pyridin-2(1H)-one] | 500 to 3000
20 | O=c1[nH]c(/C(=C/C2CCCC2)c2ccc(S(=O)(=O)CCCO)cc2)ccc1C(F)(F)F [Example 1-40, 6-[(E)-2-Cyclopentyl-1-{4-[(3-hydroxypropyl)sulfonyl]phenyl}ethenyl]-3-(trifluoromethyl)pyridin-2(1H)-one] | 500 to 3000
21 | CCN(CC)CCCS(=O)(=O)c1ccc(/C(=C\C2CCCC2)c2ccc(C(F)(F)F)c(=O)[nH]2)cc1 [Example 1-41, 6-[(E)-2-Cyclopentyl-1-(4-{[3-(diethylamino)propyl]sulfonyl}phenyl)ethenyl]-3-(trifluoromethyl)pyridin-2(1H)-one] | 500 to 3000
22 | CCN(CC)CCCC(=O)c1ccc(/C(=C\C2CCCC2)c2ccc(C(F)(F)F)c(=O)[nH]2)cc1 [Example 1-42, 6-[(E)-2-Cyclopentyl-1-{4-[4-(diethylamino)butanoyl]phenyl}ethenyl]-3-(trifluoromethyl)pyridin-2(1H)-one] | 500 to 3000
23 | CCN(CC)CCCNc1ccc(/C(=C\C2CCCC2)c2ccc(C(F)(F)F)c(=O)[nH]2)cc1 [Example 1-43, 6-[(E)-2-Cyclopentyl-1-(4-{[3-(diethylamino)propyl]amino}phenyl)ethenyl]-3-(trifluoromethyl)pyridin-2(1H)-one] | 3000 to 10000
24 | CCNCCCOc1ccc(/C(=C\C2CCCC2)c2ccc(C3CC3)c(=O)[nH]2)cc1Cl [Example 1-44, 6-[(E)-1-{3-Chloro-4-[3-(ethylamino)propoxy]phenyl}-2-cyclopentylethenyl]-3-cyclopropylpyridin-2(1H)-one] | 500 to 3000
25 | CCN(CC)CCNC(=O)c1ccc(/C(=C\C2CCCC2)c2ccc(C3CC3)c(=O)[nH]2)cc1 [Example 1-45, 4-[(E)-2-Cyclopentyl-1-(5-cyclopropyl-6-oxo-1,6-dihydropyridin-2-yl)ethenyl]-N-[2-(diethylamino)ethyl]benzamide] | 500 to 3000
26 | CN1CCN(S(=O)(=O)c2ccc(/C(=C\C3CCCC3)c3ccc(Cl)c(=O)[nH]3)cc2)CC1 [Example 1-46, 3-Chloro-6-[(E)-2-cyclopentyl-1-{4-[(4-methylpiperazin-1-yl)sulfonyl]phenyl}ethenyl]pyridin-2(1H)-one] | 500 to 3000
